Test results: US6673839B1, “Pharmaceutical compositions with antitumour activity” (Universita' Degli Studi di Catania, priority 1998, dated 2004)
Where a name gives a salt, the structure may show the parent alone.

Key:
[1] = tested on: HL60, Du 145, HT 29 and MCF 7 cell lines; experiment: Sensitivity and apoptosis in all assayed stabilized human neoplastic cell lines; type: cell-based
Experimental: The effects of L-aC on stabilized human neoplastic cell lines were tested using the methylene blue assay.
Acute promyelocytic leukemia cell line (HL60) and prostate (Du 145), colon (HT 29) and breast (MCF 7) adenocarcinoma cell lines have been used.
Cell suspensions at concentrations of 10^5 cells/ml were prepared.
100 μl of the obtained cell suspension were inoculated on 96 well plates and incubated at 37° for 12 hours, to obtain cell adhesion to the plates. After 12 hours, L-aC was added at the concentrations of 0.2 mg/ml, 2 mg/ml, 20 mg/ml. After 72 hours, the culture medium was removed and 100 μl of 100% ethanol were added for 30 min. Subsequently ethanol was removed and 1% methylene-blue was added for 2 hours. The dye was then removed and the plates were dried before adding 1M HCl.
The induction of apoptosis has been detected due to nuclear cromatin condensation, cytoplasmic shrinking, endoplasmic reticulum dilatation and membrane blebbing together with DNA fragmentation.

Yoshida tumour = experiment: Chemopreventive effects on Yoshida tumour inoculation and thriving; type: in vivo, Sprague-Dowley rats; conditions: for animals showing ascites: day 8 after inoculation
Experimental: In order to elucidate the actual chemoprevention antitumour Potentialities of L-aC, 125 Sprague-Dowley rats (4 months old, mean weight: 200 g), under standard feeding and temperature conditions (25° C.), were divided in 5 groups and treated as follows:
Group 1: 25 rats were intraperitoneally treated, on alternate days for 10 days, with 25 mg of L-aC diluted in 5 ml of saline solution. On day 10 they were inoculated with Yoshida tumour.
Group 2: 25 rats were intraperitoneally treated, on alternate days for 10 days, with 25 mg of L-aC diluted in 5 ml of saline solution. On day 10 they were inoculated with Yoshida tumour. Starting from day 11, they were further treated intraperitoneally, on alternate days, with 25 mg of L-aC diluted in 5 ml of saline solution, for a further 10 days.
Group 3: 25 previously untreated rats were inoculated, on day 10, with Yoshida tumour. Starting from day 14 they were intraperitoneally treated, on alternate days, with 25 mg of L-aC diluted in 5 ml of saline solution for 10 days.
Group 4: 25 previously untreated rats were inoculated on day 10 with Yoshida tumour. On day 18 to 24 they were intraperitoneally treated, on alternate days, with 25 mg of L-aC diluted in 5 ml of saline solution for 10 days.
Group 5: 25 previously untreated rats were inoculated on day 10 with Yoshida tumour. On day 18 to 24 they were subjected to emptying, on alternate days, of 5 ml of ascitic fluid which was substituted with 50 mg of L-aC diluted in 5 ml of saline solution.
The onset and evolution of the tumour were checked by daily observation and weighing.

## CC(=O)OC(CC(=O)[O-])C[N+](C)(C)C [L-aC, L-acetylcarnitine hydrochloride]
[1]; 0.2 mg/ml, all assayed cell lines
  programmed cell death phenomena: Phenomena suggestive of programmed cell death were already observed
[1]; 2 mg/ml
  programmed cell death phenomena: more marked and evident
[1]; 2 to 20 mg/ml
  change of effect over concentration range: No significant changes
[1]; all tested cell lines
  sensitivity of the tested cell lines: sensitive
Yoshida tumour; 6 animals sacrified at end of observation
  necroscopy finding: no presence of the disease
Yoshida tumour; Group 1 (25 mg L-aC i.p. alternate days 10 days before inoculation)
  animals showing ascites: 4/25
Yoshida tumour; Group 1, 25 mg L-aC i.p. alternate days for 10 days, inoculated day 10, day 01 of observation
  surviving animals: 25
Yoshida tumour; Group 1, 25 mg L-aC i.p. alternate days for 10 days, inoculated day 10, day 03
  surviving animals: 25
Yoshida tumour; Group 1, 25 mg L-aC i.p. alternate days for 10 days, inoculated day 10, day 05
  surviving animals: 25
Yoshida tumour; Group 1, 25 mg L-aC i.p. alternate days for 10 days, inoculated day 10, day 07
  surviving animals: 25
Yoshida tumour; Group 1, 25 mg L-aC i.p. alternate days for 10 days, inoculated day 10, day 09
  surviving animals: 25
Yoshida tumour; Group 1, 25 mg L-aC i.p. alternate days for 10 days, inoculated day 10, day 10
  surviving animals: 25
Yoshida tumour; Group 1, 25 mg L-aC i.p. alternate days for 10 days, inoculated day 10, day 11
  surviving animals: 25
Yoshida tumour; Group 1, 25 mg L-aC i.p. alternate days for 10 days, inoculated day 10, day 14
  surviving animals: 25
Yoshida tumour; Group 1, 25 mg L-aC i.p. alternate days for 10 days, inoculated day 10, day 18
  surviving animals: 25
Yoshida tumour; Group 1, 25 mg L-aC i.p. alternate days for 10 days, inoculated day 10, day 21
  surviving animals: 20
Yoshida tumour; Group 1, 25 mg L-aC i.p. alternate days for 10 days, inoculated day 10, day 24
  surviving animals: 15
Yoshida tumour; Group 1, 25 mg L-aC i.p. alternate days for 10 days, inoculated day 10, day 27
  surviving animals: 13
Yoshida tumour; Group 1, 25 mg L-aC i.p. alternate days for 10 days, inoculated day 10, day 30
  surviving animals: 13
Yoshida tumour; Group 1, 25 mg L-aC i.p. alternate days for 10 days, inoculated day 10, day 45
  surviving animals: 13
Yoshida tumour; Group 1, of 21 ascites-free animals, day 27 of observation
  animals free from the disease and still alive: 13
Yoshida tumour; Group 1, of 21 ascites-free animals, within day 27 of observation
  animals with late ascites that died: 8
Yoshida tumour; Group 1, the 4 animals with ascites
  day of observation by which ascitic animals died: ≤ 26 days
Yoshida tumour; Group 2 (25 mg L-aC i.p. alternate days 10 days before and 10 days after inoculation)
  animals showing ascites: 5/25
Yoshida tumour; Group 2, 25 mg L-aC i.p. alternate days 10 days before and 10 days after inoculation (day 10), day 01 of observation
  surviving animals: 25
Yoshida tumour; Group 2, 25 mg L-aC i.p. alternate days 10 days before and 10 days after inoculation (day 10), day 03
  surviving animals: 25
Yoshida tumour; Group 2, 25 mg L-aC i.p. alternate days 10 days before and 10 days after inoculation (day 10), day 05
  surviving animals: 25
Yoshida tumour; Group 2, 25 mg L-aC i.p. alternate days 10 days before and 10 days after inoculation (day 10), day 07
  surviving animals: 25
Yoshida tumour; Group 2, 25 mg L-aC i.p. alternate days 10 days before and 10 days after inoculation (day 10), day 09
  surviving animals: 25
Yoshida tumour; Group 2, 25 mg L-aC i.p. alternate days 10 days before and 10 days after inoculation (day 10), day 10
  surviving animals: 25
Yoshida tumour; Group 2, 25 mg L-aC i.p. alternate days 10 days before and 10 days after inoculation (day 10), day 11
  surviving animals: 25
Yoshida tumour; Group 2, 25 mg L-aC i.p. alternate days 10 days before and 10 days after inoculation (day 10), day 14
  surviving animals: 25
Yoshida tumour; Group 2, 25 mg L-aC i.p. alternate days 10 days before and 10 days after inoculation (day 10), day 18
  surviving animals: 25
Yoshida tumour; Group 2, 25 mg L-aC i.p. alternate days 10 days before and 10 days after inoculation (day 10), day 21
  surviving animals: 21
Yoshida tumour; Group 2, 25 mg L-aC i.p. alternate days 10 days before and 10 days after inoculation (day 10), day 24
  surviving animals: 21
Yoshida tumour; Group 2, 25 mg L-aC i.p. alternate days 10 days before and 10 days after inoculation (day 10), day 27
  surviving animals: 21
Yoshida tumour; Group 2, 25 mg L-aC i.p. alternate days 10 days before and 10 days after inoculation (day 10), day 30
  surviving animals: 21
Yoshida tumour; Group 2, 25 mg L-aC i.p. alternate days 10 days before and 10 days after inoculation (day 10), day 45
  surviving animals: 21
Yoshida tumour; Group 2, of 20 ascites-free animals, day 27 of observation
  animals free from the disease and still alive: 18
Yoshida tumour; Group 2, of 20 ascites-free animals, within day 27
  animals with late ascites that died: 2
Yoshida tumour; Group 2, day 27 of observation
  animals still alive with markedly low or even no ascites: 3
Yoshida tumour; Group 3 (25 mg L-aC i.p. alternate days from day 14, inoculated day 10), day 27 of observation
  animals still alive: 16/25
Yoshida tumour; Group 3, inoculated day 10, 25 mg L-aC i.p. alternate days from day 14 for 10 days, day 01 of observation
  surviving animals: 25
Yoshida tumour; Group 3, inoculated day 10, 25 mg L-aC i.p. alternate days from day 14 for 10 days, day 03
  surviving animals: 25
Yoshida tumour; Group 3, inoculated day 10, 25 mg L-aC i.p. alternate days from day 14 for 10 days, day 05
  surviving animals: 25
Yoshida tumour; Group 3, inoculated day 10, 25 mg L-aC i.p. alternate days from day 14 for 10 days, day 07
  surviving animals: 25
Yoshida tumour; Group 3, inoculated day 10, 25 mg L-aC i.p. alternate days from day 14 for 10 days, day 09
  surviving animals: 25
Yoshida tumour; Group 3, inoculated day 10, 25 mg L-aC i.p. alternate days from day 14 for 10 days, day 10
  surviving animals: 25
Yoshida tumour; Group 3, inoculated day 10, 25 mg L-aC i.p. alternate days from day 14 for 10 days, day 11
  surviving animals: 25
Yoshida tumour; Group 3, inoculated day 10, 25 mg L-aC i.p. alternate days from day 14 for 10 days, day 14
  surviving animals: 25
Yoshida tumour; Group 3, inoculated day 10, 25 mg L-aC i.p. alternate days from day 14 for 10 days, day 18
  surviving animals: 25
Yoshida tumour; Group 3, inoculated day 10, 25 mg L-aC i.p. alternate days from day 14 for 10 days, day 21
  surviving animals: 20
Yoshida tumour; Group 3, inoculated day 10, 25 mg L-aC i.p. alternate days from day 14 for 10 days, day 24
  surviving animals: 18
Yoshida tumour; Group 3, inoculated day 10, 25 mg L-aC i.p. alternate days from day 14 for 10 days, day 27
  surviving animals: 16
Yoshida tumour; Group 3, inoculated day 10, 25 mg L-aC i.p. alternate days from day 14 for 10 days, day 30
  surviving animals: 16
Yoshida tumour; Group 3, inoculated day 10, 25 mg L-aC i.p. alternate days from day 14 for 10 days, day 45
  surviving animals: 16
Yoshida tumour; Group 3, day 27
  ascites amount in survivors: markedly low or even no ascites amount
Yoshida tumour; Group 4 (25 mg L-aC i.p. alternate days day 18 to 24, inoculated day 10), day 27 of observation
  animals still alive: 11/25
Yoshida tumour; Group 4, inoculated day 10, 25 mg L-aC i.p. alternate days day 18 to 24, day 01 of observation
  surviving animals: 25
Yoshida tumour; Group 4, inoculated day 10, 25 mg L-aC i.p. alternate days day 18 to 24, day 03
  surviving animals: 25
Yoshida tumour; Group 4, inoculated day 10, 25 mg L-aC i.p. alternate days day 18 to 24, day 05
  surviving animals: 25
Yoshida tumour; Group 4, inoculated day 10, 25 mg L-aC i.p. alternate days day 18 to 24, day 07
  surviving animals: 25
Yoshida tumour; Group 4, inoculated day 10, 25 mg L-aC i.p. alternate days day 18 to 24, day 09
  surviving animals: 25
Yoshida tumour; Group 4, inoculated day 10, 25 mg L-aC i.p. alternate days day 18 to 24, day 10
  surviving animals: 25
Yoshida tumour; Group 4, inoculated day 10, 25 mg L-aC i.p. alternate days day 18 to 24, day 11
  surviving animals: 25
Yoshida tumour; Group 4, inoculated day 10, 25 mg L-aC i.p. alternate days day 18 to 24, day 14
  surviving animals: 25
Yoshida tumour; Group 4, inoculated day 10, 25 mg L-aC i.p. alternate days day 18 to 24, day 18
  surviving animals: 25
Yoshida tumour; Group 4, inoculated day 10, 25 mg L-aC i.p. alternate days day 18 to 24, day 21
  surviving animals: 15
Yoshida tumour; Group 4, inoculated day 10, 25 mg L-aC i.p. alternate days day 18 to 24, day 24
  surviving animals: 13
Yoshida tumour; Group 4, inoculated day 10, 25 mg L-aC i.p. alternate days day 18 to 24, day 27
  surviving animals: 11
Yoshida tumour; Group 4, inoculated day 10, 25 mg L-aC i.p. alternate days day 18 to 24, day 30
  surviving animals: 11
Yoshida tumour; Group 4, inoculated day 10, 25 mg L-aC i.p. alternate days day 18 to 24, day 45
  surviving animals: 11
Yoshida tumour; Group 4, day 27
  ascites amount in survivors: markedly low or even no ascites amount
Yoshida tumour; Group 5 (50 mg L-aC replacing 5 ml ascitic fluid, alternate days day 18 to 24)
  day of observation by which all animals died: ≤ 26 days
Yoshida tumour; Group 5, inoculated day 10, 50 mg L-aC replacing 5 ml ascitic fluid alternate days day 18 to 24, day 01 of observation
  surviving animals: 25
Yoshida tumour; Group 5, inoculated day 10, 50 mg L-aC replacing 5 ml ascitic fluid alternate days day 18 to 24, day 03
  surviving animals: 25
Yoshida tumour; Group 5, inoculated day 10, 50 mg L-aC replacing 5 ml ascitic fluid alternate days day 18 to 24, day 05
  surviving animals: 25
Yoshida tumour; Group 5, inoculated day 10, 50 mg L-aC replacing 5 ml ascitic fluid alternate days day 18 to 24, day 07
  surviving animals: 25
Yoshida tumour; Group 5, inoculated day 10, 50 mg L-aC replacing 5 ml ascitic fluid alternate days day 18 to 24, day 09
  surviving animals: 25
Yoshida tumour; Group 5, inoculated day 10, 50 mg L-aC replacing 5 ml ascitic fluid alternate days day 18 to 24, day 10
  surviving animals: 25
Yoshida tumour; Group 5, inoculated day 10, 50 mg L-aC replacing 5 ml ascitic fluid alternate days day 18 to 24, day 11
  surviving animals: 25
Yoshida tumour; Group 5, inoculated day 10, 50 mg L-aC replacing 5 ml ascitic fluid alternate days day 18 to 24, day 14
  surviving animals: 25
Yoshida tumour; Group 5, inoculated day 10, 50 mg L-aC replacing 5 ml ascitic fluid alternate days day 18 to 24, day 18
  surviving animals: 25
Yoshida tumour; Group 5, inoculated day 10, 50 mg L-aC replacing 5 ml ascitic fluid alternate days day 18 to 24, day 21
  surviving animals: 8
Yoshida tumour; Group 5, inoculated day 10, 50 mg L-aC replacing 5 ml ascitic fluid alternate days day 18 to 24, day 24
  surviving animals: 3
Yoshida tumour; Group 5, inoculated day 10, 50 mg L-aC replacing 5 ml ascitic fluid alternate days day 18 to 24, day 27
  surviving animals: 0
Yoshida tumour; Group 5, inoculated day 10, 50 mg L-aC replacing 5 ml ascitic fluid alternate days day 18 to 24, day 30
  surviving animals: 0
Yoshida tumour; Group 5, inoculated day 10, 50 mg L-aC replacing 5 ml ascitic fluid alternate days day 18 to 24, day 45
  surviving animals: 0
Yoshida tumour; day 45 of observation
  general condition of surviving animals: good health
Yoshida tumour; survivors, further 6 weeks
  deaths during further observation: no deaths occurred
